US20230278984A1 (Global Blood Therapeutics, Inc., priority 2020, published 2023)

Molecular target: T1, Human pyruvate kinase R (PKR) (Homo sapiens, UniProt P30613)
T1 construct: Human pyruvate kinase R (PKR), residues 14-574; 6x-His (N, cleaved yes); 8x-Arg (N, cleaved yes); SUMO (N, cleaved yes); host or cells: E. coli
Assay: Biochemical assay for activation of pyruvate kinase R (Kinase-Glo luminescence measurement of ATP generation)
Conditions: for AC50: PKR biochemical assay, 0.1 nM PKR, 0.3 mM ADP, 2 mM FBP, 0.1 mM PEP; for Emax: maximal activation level relative to the activation level achieved by the literature compound AG-348 @ 10 μM
Description: Human pyruvate kinase R (PKR), residues 14-574, and human pyruvate kinase M2, residues 1-531, were cloned into expression plasmids and obtained from ATUM Bio (Newark, Calif.). Proteins were translated as fusions with 6×-His, 8×-Arg, and SUMO at the N-terminus. A third construct of human PKR was truncated, residues 50-574, and similarly cloned for use in crystallography experiments. All proteins were cloned, expressed in E. coli, and purified using similar protocols. Cells were grown at 30° C. in Luria-Bertani broth supplemented with 0.4% glucose to OD600=0.8 and induced with 0.4 mM IPTG at 16° C. for 18 hours. Cells were harvested by centrifugation, resuspended in 50 mM potassium phosphate pH 8.0, 500 mM NaCl, 25 mM imidazole pH 8.0, and 3 mM (3-mercaptoethanol. Cells were lysed using a LM20 microfluidizer from Microfluidics (Westwood, Mass.). The crude lysate was immediately supplemented with 0.2 mM phenylmethylsulfonyl fluoride (PMSF) and centrifuged at 20,000 g for 20 minutes. The soluble fraction was subsequently incubated with 2 mL Ni-NTA (GE Healthcare) per 1,000 ODs for 1 hour at 4° C. Following incubation with the Ni-NTA resin, lysate was removed by pelleting resin at 2,500 g for 3 minutes and washed 3 times with 9 bed volumes of 50 mM potassium phosphate pH 8.0, 500 mM NaCl, 25 mM imidazole, and 3 mM 3-mercaptoethanol. Following the batch wash Ni-NTA resin was loaded onto a gravity column and His-tagged protein was eluted with 6 bed volumes of 10 mM Tris/HCl pH 8.0, 200 mM NaCl, 500 mM imidazole, and 3 mM (3-mercaptoethanol. Eluted protein was dialyzed overnight against 10 mM Tris/HCl pH 8.0, 200 mM NaCl, and 1 mM DTT and the 6×-His-8×-Arg-SUMO-tag was cleaved using a 20:1 molar ratio of protein:3C protease. The protein was purified by anion exchange chromatography on a HiTrapQ or MonoQ 10/100 GL column (GE Healthcare) via a linear NaCl gradient and twice by size exclusion chromatography using a Superdex S200 26/60 column (GE Healthcare) run in 10 mM Tris/HCl pH 8.0, 200 mM NaCl, 10 mM MgCl2, 1 mM DTT. Proteins were concentrated to −12 mg/mL for crystallization and flash frozen for storage.
Biochemical Assay for Activation of Pyruvate Kinase R
Activation of pyruvate kinase R (PKR) and pyruvate kinase M2 (PKM2) were measured using a luminescence based measurement of ATP generation and the Kinase-Glo luminescent kinase reagent kit.

T1 sequence (P30613 14-574): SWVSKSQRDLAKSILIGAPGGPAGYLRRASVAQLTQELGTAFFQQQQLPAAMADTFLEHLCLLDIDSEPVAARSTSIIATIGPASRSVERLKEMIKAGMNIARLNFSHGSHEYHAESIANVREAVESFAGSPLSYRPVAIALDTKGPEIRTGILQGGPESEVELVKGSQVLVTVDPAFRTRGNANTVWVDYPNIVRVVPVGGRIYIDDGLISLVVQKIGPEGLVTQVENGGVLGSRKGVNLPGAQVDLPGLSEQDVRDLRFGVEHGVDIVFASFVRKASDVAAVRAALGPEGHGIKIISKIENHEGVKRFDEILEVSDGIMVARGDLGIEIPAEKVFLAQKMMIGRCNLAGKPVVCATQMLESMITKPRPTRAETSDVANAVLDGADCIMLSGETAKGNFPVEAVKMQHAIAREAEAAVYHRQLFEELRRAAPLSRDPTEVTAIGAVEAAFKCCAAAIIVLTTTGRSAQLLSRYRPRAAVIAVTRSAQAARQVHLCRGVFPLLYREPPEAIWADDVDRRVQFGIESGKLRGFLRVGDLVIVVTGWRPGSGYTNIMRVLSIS

Row | AC50 [nM] | Emax [%] | Compound
1 | 1200 | 29 | CN(Cc1ncnn1-c1ccc(Cl)c(F)c1)C(=O)N(C)Cc1ncnn1-c1ccc(Cl)c(F)c1 [Compound 28, 1,3-bis({[1-(4-chloro-3-fluorophenyl)-1H-1,2,4-triazol-5-yl]methyl})-1,3-dimethylurea]
2 | 18 | 48 | CCN(Cc1ncnn1-c1ccc(Cl)c(F)c1)C(=O)NCc1ncnn1-c1ccc(Cl)c(F)c1 [Compound 30, 1,3-bis({[1-(4-chloro-3-fluorophenyl)-1H-1,2,4-triazol-5-yl]methyl})-1-ethylurea]
3 | 14 | 76 | O=C(NCc1ncnn1-c1ccc(Cl)c(F)c1)NCc1nnnn1-c1ccc(Cl)c(F)c1 [Compound 31, 3-{[1-(4-chloro-3-fluorophenyl)-1H-1,2,3,4-tetrazol-5-yl]methyl}-1-{[1-(4-chloro-3-fluorophenyl)-1H-1,2,4-triazol-5-yl]methyl}urea]
4 | 210 | 74 | CN(Cc1nnnn1-c1ccc(Cl)c(F)c1)C(=O)NCc1ncnn1-c1ccc(Cl)c(F)c1 [Compound 32, 1-{[1-(4-chloro-3-fluorophenyl)-1H-1,2,3,4-tetrazol-5-yl]methyl}-3-{[1-(4-chloro-3-fluorophenyl)-1H-1,2,4-triazol-5-yl]methyl}-1-methylurea]
5 | 9 | 67 | CN(Cc1ncnn1-c1ccc(Cl)c(F)c1)C(=O)NCc1nnnn1-c1ccc(Cl)c(F)c1 [Compound 33, 1-{[1-(4-chloro-3-fluorophenyl)-1H-1,2,3,4-tetrazol-5-yl]methyl}-3-{[1-(4-chloro-3-fluorophenyl)-1H-1,2,4-triazol-5-yl]methyl}-3-methylurea]
6 | 830 | 89 | O=C(NCc1ncnn1-c1ccc(Cl)c(F)c1)N(CCO)Cc1nnnn1-c1ccc(Cl)c(F)c1 [Compound 34, 1-{[1-(4-chloro-3-fluorophenyl)-1H-1,2,3,4-tetrazol-5-yl]methyl}-3-{[1-(4-chloro-3-fluorophenyl)-1H-1,2,4-triazol-5-yl]methyl}-1-(2-hydroxyethyl)urea]
7 | 3200 | 28 | O=C(NCc1ncnn1-c1ccc(Cl)c(F)c1)NCc1ncnn1-c1nc2cc(Cl)ccc2s1 [Compound 35, 1-{[1-(5-chloro-1,3-benzothiazol-2-yl)-1H-1,2,4-triazol-5-yl]methyl}-3-{[1-(4-chloro-3-fluorophenyl)-1H-1,2,4-triazol-5-yl]methyl}urea]
8 | 130 | 95 | CCN(Cc1ncnn1-c1ccc(Cl)c(F)c1)C(=O)NCc1nnnn1-c1ccc(Cl)c(F)c1 [Compound 36, 3-{[1-(4-chloro-3-fluorophenyl)-1H-1,2,3,4-tetrazol-5-yl]methyl}-1-{[1-(4-chloro-3-fluorophenyl)-1H-1,2,4-triazol-5-yl]methyl}-1-ethylurea]
9 | 55 | 53 | O=C(NCc1ncnn1-c1ccc(Cl)c(F)c1)N(CCF)Cc1ncnn1-c1ccc(Cl)c(F)c1 [Compound 38, 1,3-bis({[1-(4-chloro-3-fluorophenyl)-1H-1,2,4-triazol-5-yl]methyl})-1-(2-fluoroethyl)urea]
10 | 38 | 74 | Cc1nc(CNC(=O)NCc2ncnn2-c2ccc3ncc(F)cc3c2)n(-c2ccc(Cl)c(F)c2)n1 [Compound 46, 3-{[1-(4-chloro-3-fluorophenyl)-3-methyl-1H-1,2,4-triazol-5-yl]methyl}-1-{[1-(3-fluoroquinolin-6-yl)-1H-1,2,4-triazol-5-yl]methyl}urea]
11 | 83 | 74 | Cc1nc(CNC(=O)NCc2ncnn2-c2ccc3cc(F)cnc3c2)n(-c2ccc(Cl)c(F)c2)n1 [Compound 48, 1-{[1-(4-chloro-3-fluorophenyl)-3-methyl-1H-1,2,4-triazol-5-yl]methyl}-3-{[1-(3-fluoroquinolin-7-yl)-1H-1,2,4-triazol-5-yl]methyl}urea]
12 | 32 | 64 | COC(=O)c1cc(-n2ncnc2CNC(=O)NCc2nc(C)nn2-c2ccc(Cl)c(F)c2)ccc1Cl [Compound 50, methyl 2-chloro-5-(5-{[({[1-(4-chloro-3-fluorophenyl)-3-methyl-1H-1,2,4-triazol-5-yl]methyl}carbamoyl)amino]methyl}-1H-1,2,4-triazol-1-yl)benzoate]

More lines, now with the values behind:

Row | Compound | AC50 [nM] | Emax [%]
13 | Cc1ccc2ccc(-n3ncnc3CNC(=O)NCc3nc(C)nn3-c3ccc(Cl)c(F)c3)cc2n1 [Compound 29, 3-{[1-(4-chloro-3-fluorophenyl)-3-methyl-1H-1,2,4-triazol-5-yl]methyl}-1-{[1-(2-methylquinolin-7-yl)-1H-1,2,4-triazol-5-yl]methyl}urea] | 110 | 78
14 | Cc1nc(CNC(=O)NCc2ncnn2-c2ccc3ccncc3c2)n(-c2ccc(Cl)c(F)c2)n1 [Compound 39, 3-{[1-(4-chloro-3-fluorophenyl)-3-methyl-1H-1,2,4-triazol-5-yl]methyl}-1-{[1-(isoquinolin-7-yl)-1H-1,2,4-triazol-5-yl]methyl}urea] | 51 | 63
15 | Cc1nc(CNC(=O)NCc2ncnn2-c2ccc3nccnc3c2)n(-c2ccc(Cl)c(F)c2)n1 [Compound 40, 3-{[1-(4-chloro-3-fluorophenyl)-3-methyl-1H-1,2,4-triazol-5-yl]methyl}-1-{[1-(quinoxalin-6-yl)-1H-1,2,4-triazol-5-yl]methyl}urea] | 150 | 73
16 | Cc1nc(CNC(=O)NCc2ncnn2-c2ccc3ncccc3c2)n(-c2ccc(Cl)c(F)c2)n1 [Compound 41, 1-{[1-(4-chloro-3-fluorophenyl)-3-methyl-1H-1,2,4-triazol-5-yl]methyl}-3-{[1-(quinolin-6-yl)-1H-1,2,4-triazol-5-yl]methyl}urea] | 40 | 81
17 | CC(C)c1nc(CNC(=O)NCc2ncnn2-c2ccc3cccnc3c2)n(-c2ccc(Cl)c(F)c2)n1 [Compound 42, 1-{[1-(4-chloro-3-fluorophenyl)-3-(propan-2-yl)-1H-1,2,4-triazol-5-yl]methyl}-3-{[1-(quinolin-7-yl)-1H-1,2,4-triazol-5-yl]methyl}urea] | 540 | 74
18 | Cc1nc(CNC(=O)NCc2ncnn2-c2cnc3cccnc3c2)n(-c2ccc(Cl)c(F)c2)n1 [Compound 43, 1-{[1-(4-chloro-3-fluorophenyl)-3-methyl-1H-1,2,4-triazol-5-yl]methyl}-3-{[1-(1,5-naphthyridin-3-yl)-1H-1,2,4-triazol-5-yl]methyl}urea] | 100 | 84
19 | Cc1nc(CNC(=O)NCc2ncnn2-c2ccc3c(c2)ncn3C)n(-c2ccc(Cl)c(F)c2)n1 [Compound 44, 1-{[1-(4-chloro-3-fluorophenyl)-3-methyl-1H-1,2,4-triazol-5-yl]methyl}-3-{[1-(1-methyl-1H-1,3-benzodiazol-5-yl)-1H-1,2,4-triazol-5-yl]methyl}urea] | 81 | 94
20 | CCc1nc(CNC(=O)NCc2ncnn2-c2ccc3cccnc3c2)n(-c2ccc(Cl)c(F)c2)n1 [Compound 45, 1-{[1-(4-chloro-3-fluorophenyl)-3-ethyl-1H-1,2,4-triazol-5-yl]methyl}-3-{[1-(quinolin-7-yl)-1H-1,2,4-triazol-5-yl]methyl}urea] | 110 | 80
21 | Cc1nc(CNC(=O)NCc2ncnn2-c2cc(F)c3cccnc3c2)n(-c2ccc(Cl)c(F)c2)n1 [Compound 47, 1-{[1-(4-chloro-3-fluorophenyl)-3-methyl-1H-1,2,4-triazol-5-yl]methyl}-3-{[1-(5-fluoroquinolin-7-yl)-1H-1,2,4-triazol-5-yl]methyl}urea] | 42 | 85
22 | CCc1nc(CNC(=O)NCc2ncnn2-c2ccc3nccnc3c2)n(-c2ccc(Cl)c(F)c2)n1 [Compound 49, 1-{[1-(4-chloro-3-fluorophenyl)-3-ethyl-1H-1,2,4-triazol-5-yl]methyl}-3-{[1-(quinoxalin-6-yl)-1H-1,2,4-triazol-5-yl]methyl}urea] | 150 | 79
23 | Cc1nc(CNC(=O)NCc2ncnn2-c2ccc3c(cnn3C)c2)n(-c2ccc(Cl)c(F)c2)n1 [Compound 51, 1-{[1-(4-chloro-3-fluorophenyl)-3-methyl-1H-1,2,4-triazol-5-yl]methyl}-3-{[1-(1-methyl-1H-indazol-5-yl)-1H-1,2,4-triazol-5-yl]methyl}urea] | 66 | 75
